# Reference: PMC4321561, “Optimization of the cyclotide framework to improve cell penetration properties” (Frontiers in Pharmacology, 2015)
# Where a SMILES comes first, the peptide text is derived from it. Bridges are numbered along the chain shown (N, C = ends). Where no end group is shown, it is not given here.
# Legend:
# [1] = Serum stability; assay type: in vitro ADME; conditions: 300 μM stock diluted 10 times in 100% human serum (male AB plasma), 37°C, analytical HPLC, 215 nm, triplicate; for stability in human serum (in words): 0-24 h
# Description: The stability of peptides in human serum was examined using a protocol reported previously (Chan et al., [2011]). Briefly, stock solutions of peptides (300 μM) were diluted 10 times with pre-warmed 100% human serum isolated from male AB plasma (Sigma-Aldrich) and incubated at 37°C for 0, 1, 2, 3, 5, 8, 12 and 24 h. Controls with peptides in PBS were included. The reaction was stopped by denaturing the serum proteins with urea at a final concentration of 3 M at 4°C for 10 min, followed by precipitation of serum proteins with trichloroacetic acid at a final concentration of 7% (v/v) (4°C, 10 min) and centrifugation (17,000 g, 10 min). The supernatant of each sample was recovered and run on an analytical column using a linear gradient of 5–30% solvent B (acetonitrile 90% (v/v) with 0.045% (v/v) TFA in H2O) in solvent A (0.05% (v/v) TFA in H2O) over 25 min at a flow rate of 0.3 mL/min with monitoring at 215 nm. The elution profile of each peptide was identified by the PBS sample from 0 time point. The percentage of peptide remaining in serum-treated samples was determined by comparing the height of the peptide peak obtained at each time point with that of the peptide peak obtained at 0 time point. Each experiment was done in triplicate.
# Figure 4 Serum-stability of tested peptides. Percentage of peptide remaining upon incubation with human serum. The portion of serum-treated peptide remaining was determined by calculating the height of the respective elution peak in analytical-HPLC and comparing it with control without incubation. Data points are means ± SD of three experiments.
# [2] = system: HeLa cells; assay: Internalization of Alexa fluor 488-labeled peptides into HeLa cells (flow cytometry); assay type: cell-based, human; conditions: 8 μM Alexa fluor 488-labeled peptide, 1 h, 37°C, medium without serum, flow cytometry, 10,000 cells, mean ± SD of three independent experiments
molecule,measurement,setting,value
"CC[C@H](C)[C@@H]1NC(=O)[C@@H]2CSSC[C@@H]3NC(=O)[C@H](C(C)C)NC(=O)CNC(=O)CNC(=O)[C@H](CC(=O)O)NC(=O)[C@H](CO)NC(=O)CNC(=O)[C@H](CO)NC(=O)CNC(=O)[C@@H]4CSSC[C@H](NC(=O)[C@H](CC(=O)O)NC(=O)[C@H](CO)NC(=O)[C@H](CC(=O)O)NC(=O)[C@H](CCCNC(=N)N)NC(=O)[C@H](CCCNC(=N)N)NC(=O)[C@H](CSSC[C@H](NC1=O)C(=O)N[C@@H](CCCCN)C(=O)NCC(=O)N[C@@H](CC(N)=O)C(=O)NCC(=O)N[C@@H](Cc1ccc(O)cc1)C(=O)N4)NC(=O)[C@H](CCCNC(=N)N)NC(=O)[C@H](CCCNC(=N)N)NC(=O)[C@H](CCCNC(=N)N)NC(=O)[C@H](C)NC(=O)[C@H](CCCNC(=N)N)NC(=O)[C@H](CCCNC(=N)N)NC(=O)CNC(=O)[C@H](Cc1ccc(O)cc1)NC3=O)C(=O)N1CCC[C@H]1C(=O)NCC(=O)N[C@@H](C)C(=O)N2 [MCo-CTP] (cyclo(ACICKGNGYCGSGSDGGVCYGRRARRRCRRDSDCPG); disulfide 2-19, 4-28, 10-34)",stability in human serum (in words),[1],stable in human serum
same,"remaining at 12 h, 30 µM","[1]; 12 h, peak height vs 0 time point, read-out: peptide remaining intact after 12 h incubation in serum",> 60%
"CC[C@H](C)[C@@H]1NC(=O)[C@@H]2CSSC[C@@H]3NC(=O)[C@H](C(C)C)NC(=O)CNC(=O)CNC(=O)[C@H](CC(=O)O)NC(=O)[C@H](CO)NC(=O)CNC(=O)[C@H](CO)NC(=O)CNC(=O)[C@@H]4CSSC[C@H](NC(=O)[C@H](CC(=O)O)NC(=O)[C@H](CO)NC(=O)[C@H](CC(=O)O)NC(=O)[C@H](CCCNC(=N)N)NC(=O)[C@H](CCCNC(=N)N)NC(=O)[C@H](CSSC[C@H](NC1=O)C(=O)N[C@@H](CCCCN)C(=O)NCC(=O)N[C@@H](CC(N)=O)C(=O)NCC(=O)N[C@@H](Cc1ccc(O)cc1)C(=O)N4)NC(=O)[C@H](CCCNC(=N)N)NC(=O)[C@H](CCCNC(=N)N)NC(=O)[C@H](CC(C)C)NC(=O)[C@H]([C@@H](C)CC)NC(=O)[C@H](CCCNC(=N)N)NC(=O)[C@@H]1CCCN1C3=O)C(=O)N1CCC[C@H]1C(=O)NCC(=O)N[C@@H](C)C(=O)N2 [MCo-RM1] (cyclo(ACICKGNGYCGSGSDGGVCPRILRRCRRDSDCPG); disulfide 2-19, 4-26, 10-32)",stability in human serum (in words),[1],stable in human serum
"NH2-YGRKKRRQRRRPPQG-COOH [TAT, gold standard linear cell-penetrating peptide]","Fluorescence signal of HeLa cells, before trypan blue (mean fluorescence emission normalized to TAT after trypan blue)",[2]; ex 488 nm / em 530/30 nm,1.08 ± 0.07
same,"Fluorescence signal of HeLa cells, after trypan blue (mean fluorescence emission normalized to TAT after trypan blue)",[2]; trypan blue 160 μg/mL,1.00 ± 0.17
YGRKARRRRRR [CTP512],time to full degradation by proteases in serum,[1]; peak height vs 0 time point,≤ 1 h
